Results reported in article PMC11855827, “High-Throughput Screening of Five Compound Libraries for Anthelmintic Activity and Toxicity Leads to the Discovery of Two Flavonoid Compounds” (International Journal of Molecular Sciences, 2025).
Read-outs that look alike come from different tables or passages of the source.

Tested on: C. elegans
Experiment: microbe, parasite or virus in culture
Conditions: Caenorhabditis elegans
[1] = 0 h, read-out: Percentage of motility inhibition 0 h, Table S2, C. elegans SS assay, 110 μM, 0 h, averages of 4 data points
[2] = 24 h, read-out: Percentage of motility inhibition 24 h, Table S2, C. elegans SS assay, 110 μM, 24 h, averages of 4 data points
[3] = 0 h, read-out: Percentage of motility inhibition 0 h
[4] = 24 h, read-out: Percentage of motility inhibition 24 h

SMILES	inhibition at 110 µM [1] [%]	inhibition at 110 µM [2] [%]	inhibition at 110 µM [3] [%]	inhibition at 110 µM [4] [%]
N[C@@H](CC(=O)O)C(=O)O [L-Aspartic acid]	20	30	–	–
N[C@@H](CS)C(=O)O [L-Cysteine]	4	7	–	–
N[C@@H](CCC(=O)O)C(=O)O [L-Glutamic acid]	3	1	–	–
NC(=O)CC[C@H](N)C(=O)O [L-Glutamine]	3	0	–	–
N[C@@H](Cc1c[nH]cn1)C(=O)O [L-Histidine]	23	22	–	–
CC[C@H](C)[C@H](N)C(=O)O [L-Isoleucine]	14	17	–	–
C[C@H](O)C(=O)O [L-Lactic acid]	16	21	–	–
CC(C)C[C@H](N)C(=O)O [L-Leucine]	4	11	–	–
NCCCC[C@H](N)C(=O)O [L-Lysine]	–	–	19	2
CSCC[C@H](N)C(=O)O [L-Methionine]	0	0	–	–
N[C@@H](Cc1ccccc1)C(=O)O [L-Phenylalanine]	23	21	–	–
O=C(O)[C@@H]1CCCN1 [L-Proline]	0	0	–	–
N[C@@H](CO)C(=O)O [L-Serine]	0	0	–	–
N[C@@H](Cc1c[nH]c2ccccc12)C(=O)O [L-Tryptophan]	–	–	26	3
N[C@@H](Cc1ccc(O)cc1)C(=O)O [L-Tyrosine]	–	–	34	8
CC(C)[C@H](N)C(=O)O [L-Valine]	0	12	–	–
CC12CC3OC4O[C@H](CO)[C@@H](O)[C@H](O)[C@H]4OC34CC1C4(COC(=O)c1ccccc1)C(=O)O2 (some centres unmarked) [Lactiflorin]	0	11	–	–
Nc1ccn([C@@H]2CS[C@H](CO)O2)c(=O)n1 [Lamivudine]	23	5	–	–
CC(=O)O[C@H]1C[C@H](O[C@H]2[C@@H](O)C[C@H](O[C@H]3[C@@H](O)C[C@H](O[C@H]4CC[C@@]5(C)[C@H](CC[C@@H]6[C@@H]5C[C@@H](O)[C@]5(C)[C@@H](C7=CC(=O)OC7)CC[C@]65O)C4)O[C@@H]3C)O[C@@H]2C)O[C@H](C)[C@H]1O[C@@H]1O[C@H](CO)[C@@H](O)[C@H](O)[C@H]1O [Lanatoside C]	0	2	–	–
CC[C@@H](C(=O)[C@@H](C)[C@@H](O)[C@H](C)CCc1ccc(C)c(O)c1C(=O)O)[C@H]1O[C@](CC)([C@H]2CC[C@](O)(CC)[C@H](C)O2)C[C@@H]1C [Lasalocid]	23	21	–	–

SMILES	inhibition at 110 µM [1] [%]	inhibition at 110 µM [2] [%]	inhibition at 110 µM [3] [%]	inhibition at 110 µM [4] [%]
COC(=O)N[C@H](C(=O)N1CC2(CC2)C[C@H]1c1nc(-c2ccc3c(c2)C(F)(F)c2cc(-c4ccc5[nH]c([C@@H]6[C@H]7CC[C@H](C7)N6C(=O)[C@@H](NC(=O)OC)C(C)C)nc5c4)ccc2-3)c[nH]1)C(C)C [Ledipasvir]	25	1	–	–
COc1cc(C(=O)OCCCCNC(=N)N)cc(OC)c1O [Leonurine]	0	0	–	–
Cc1c(C)[n+](Cc2ccccc2)cn1Cc1ccccc1 [Lepidiline A]	5	14	–	–
CCc1nn(CCO)c(CC)c1Oc1cc(C#N)cc(C#N)c1 [Lersivirine]	18	8	–	–
COc1cccc(N2CCN(C3=Nc4c(F)cccc4[C@H](CC(=O)O)N3c3cc(C(F)(F)F)ccc3OC)CC2)c1 [Letermovir]	24	0	–	–
N#Cc1ccc(C(c2ccc(C#N)cc2)n2cncn2)cc1 [Letrozole]	0	0	–	–
C[C@H]1COc2c(N3CCN(C)CC3)c(F)cc3c(=O)c(C(=O)O)cn1c23 [Levofloxacin]	9	10	–	–
COc1c(/C=C/C(=O)c2ccc(O)c(CC=C(C)C)c2)ccc(O)c1O [Licochal cone D]	15	0	–	–
C=C(C)[C@H](C)c1cc(/C=C/C(=O)c2ccc(O)cc2)c(OC)cc1O [Licochal cone E]	5	0	–	–
Cc1nc(C)c(C)nc1C [Ligustrazine]	0	2	–	–
C=CC(C)(O)CCC=C(C)C (centres unmarked) [Linalool]	–	–	14	20
C/C1=C\CCC2=C[C@@H](OC2=O)c2c(C)coc2C1 [Linderalactone]	0	45	–	–
C/C1=C\CC[C@]23O[C@H]2[C@@H](OC3=O)c2c(C)coc2C1 [Linderane]	5	16	–	–
O=C1C[C@@H](c2ccc(O[C@@H]3O[C@H](CO)[C@@H](O)[C@H](O)[C@H]3O)cc2)Oc2cc(O)ccc21 [Liquiriti n]	45	14	–	–
C[C@@H]1[C@H]2[C@H](O[C@@H]3O[C@H](CO)[C@@H](O)[C@H](O)[C@H]3O)OC=C(C(=O)O)[C@H]2C[C@@H]1O [Loganic acid]	28	29	–	–
COC(=O)C1=CO[C@@H](O[C@@H]2O[C@H](CO)[C@@H](O)[C@H](O)[C@H]2O)[C@@H]2[C@@H](C)[C@@H](O)C[C@H]12 [Loganin]	11	15	–	–
C[C@@H]1O[C@@H](O[C@H]2[C@H](Oc3cc(O)c4c(=O)cc(-c5ccc(O)c(O)c5)oc4c3)O[C@H](CO)[C@@H](O)[C@@H]2O)[C@H](O)[C@H](O)[C@H]1O [Lonicerin]	2	2	–	–
Cc1cccc(C)c1OCC(=O)N[C@@H](Cc1ccccc1)[C@@H](O)C[C@H](Cc1ccccc1)NC(=O)[C@H](C(C)C)N1CCCNC1=O [Lopinavir]	17	14	–	–
N#C/C(=C1/SC[C@@H](c2ccc(Cl)cc2Cl)S1)n1ccnc1 [Luliconazole]	3	7	–	–
CCCCN(CCCC)CC(O)c1cc(Cl)cc2c1-c1ccc(Cl)cc1/C2=C/c1ccc(Cl)cc1 (centres unmarked) [Lumefantrine]	0	0	–	–

SMILES	inhibition at 110 µM [1] [%]	inhibition at 110 µM [2] [%]	inhibition at 110 µM [3] [%]	inhibition at 110 µM [4] [%]
C=C(C)[C@@H]1CC[C@]2(C)CC[C@]3(C)[C@H](CC[C@@H]4[C@@]5(C)CCC(=O)C(C)(C)[C@@H]5CC[C@]43C)[C@@H]12 [Lupenone]	25	17	–	–
C=C(C)[C@@H]1CC[C@]2(C)CC[C@]3(C)[C@H](CC[C@@H]4[C@@]5(C)CC[C@H](O)C(C)(C)[C@@H]5CC[C@]43C)[C@@H]12 [Lupeol]	0	0	–	–
CC1=C[C@H](O)CC(C)(C)[C@H]1/C=C/C(C)=C/C=C/C(C)=C/C=C/C=C(C)/C=C/C=C(C)/C=C/C1=C(C)C[C@@H](O)CC1(C)C [Lutein]	–	–	13	0
O=c1cc(-c2ccc(O)c(O)c2)oc2cc(O)cc(O)c12 [Luteolin]	4	0	–	–
COc1ccc2c3c1O[C@H]1C[C@@H](O)CC[C@]31CCN(C)C2 [Lycoramine]	0	0	–	–
O[C@H]1[C@H]2c3cc4c(cc3CN3CCC(=C[C@@H]1O)[C@H]23)OCO4 [Lycorine]	34	0	–	–
CN1[C@@H]2CC[C@H]1C[C@@H](OC(=O)[C@H](CO)c1ccccc1)C2 [L‐Hyoscyamine]	–	–	16	12
C[C@H]1[C@H](C)CC[C@]2(C(=O)O)CC[C@]3(C)C(=CC[C@@H]4[C@@]5(C)C[C@@H](O)[C@H](O)[C@@](C)(CO)[C@@H]5[C@H](O)C[C@]43C)[C@H]12 [Madecassic acid]	1	31	–	–
C=CCc1ccc(O)c(-c2cc(CC=C)ccc2O)c1 [Magnolol]	0	14	–	–
O=C1C=CC(=O)N1 [Maleimide]	25	32	–	–
O=C(O)CC(O)C(=O)O (centres unmarked) [Malic acid]	2	14	–	–
C=C1[C@@H]2CC[C@@H]3[C@](C2)(C(=O)[C@@H](O)[C@@H]2C(C)(C)[C@H]4CC(=O)[C@@]32CO4)[C@@H]1OC(C)=O [Maoecrystal A]	7	2	–	–
CN1CCN(c2c(F)cc3c(=O)c(C(=O)O)cn4c3c2OCN4C)CC1 [Marbofloxacin]	23	9	–	–
CC1(C)CC[C@]2(C(=O)O)CC[C@]3(C)C(=CC[C@@H]4[C@@]5(C)C[C@@H](O)[C@H](O)C(C)(C)[C@@H]5CC[C@]43C)[C@@H]2C1 [Maslinic acid]	0	5	–	–
C[C@H](Cc1ccc(O)c(O)c1)[C@@H](C)Cc1ccc(O)c(O)c1 [Masoprocol]	7	17	–	–
O=C1CCC[C@@H]2[C@H]3CCCN4CCC[C@@H](CN12)[C@@H]34 [Matrine]	–	2	–	–
COc1cc2cc(c1Cl)N(C)C(=O)CC(O)C1(C)OC1C(C)C1CC(O)(NC(=O)O1)C(OC)/C=C/C=C(\C)C2 (centres unmarked) [Maytansinol]	0	0	–	–
COC(=O)Nc1nc2ccc(C(=O)c3ccccc3)cc2[nH]1 [Mebendazole]	18	37	–	–
CC(=O)O[C@]1(C(C)=O)CC[C@H]2[C@@H]3C[C@H](C)C4=CC(=O)CC[C@]4(C)[C@H]3CC[C@@]21C [Medroxyprogesterone acetate]	11	6	–	–
CN1C(=O)/C(=C2/C(=O)Nc3ccccc32)c2ccccc21 [Meisoindigo]	0	0	–	–
